The source of these data is US20050013781A1, “Sunscreen composition” (Playtex Products, Inc., priority 2003, published 2005).

Common to all, as to assay type: physicochemical
Data set [1] is described as follows: Dielectric constant of glycols and derivatives. To be noted: for Dielectric Constant, 23° C.: neat glycol/derivative. The text has this: Determining the polarity of a mixture or an emulsion can be performed in various ways. For example, determining a polarity can include measuring a property that is a function of polarity, such as a dielectric constant. Measurement of a dielectric constant of a liquid can be performed by various sensors, such as immersion probes, flow-through probes, and cup-type probes, attached to various meters, such as those available from the Brookhaven Instruments Corporation of Holtsville, N.Y. (e.g., model BI-870) and the Scientifica Company of Princeton, N.J. (e.g. models 850 and 870). For consistency of comparison, preferably all measurements for a particular filter system are performed at substantially the same sample temperature, e.g., by use of a water bath. Generally, the measured dielectric constant of a substance will increase at lower temperatures and decrease at higher temperatures.
Dielectric Constants of the following glycols and their derivatives have been measured (see Table 1).

Data set [2] in a line: DOE (central composite design) photostability of model oil phases: retained absorbance after 15 MED. To be noted: response surface analysis of DOE 1-3. On the procedure:
In order to determine the impact of the concentration of avobenzone, from 0.04842 M to 0.0968 M (Factor 1) and different molar ratios of 1,2-octanediol (caprylyl glycol) to avobenzone, from 0 to 10 (Factor 2), on the photostability of avobenzone in the different sunscreen compositions, numerous studies were conducted. Three designs of experiments that represent central composite designs (CCDs) and D.O.E. Fusion 7.2.2 software were employed.
The CCD type of design was used to determine the effect of two factors: concentration of Avobenzone and the molar ratio 1,2-octanediol/avobenzone on the photostability of avobenzone in the different sunscreen compositions. Two responses were measured: the retained absorbance (%) of a sunscreen composition at 370 nm (UVA) and the same measurement at 310 nm (UVB) after irradiation dose of 15 MED.
The same order of experiments was run in the different set-ups. As a result, two categorical factors were added: Oxybenzone (absent or present at a predetermined constant level) and Octocrylene (absent or present at a predetermined constant level). Table 16 presents the three set-ups as well as the numbers of the formulation tables and response tables.
Response surface equalization were fitted to both responses (retained absorbance at 370 nm and retained absorbance at 310 nm, both after an irradiation dose of 15 MED). The significant factors were selected.

Data set [3] is described as follows: Photostability on VITRO-SKIN: retained absorbance and critical wavelength before and after irradiation. On the procedure:
Referring to Table 7 above, the compositions were applied on Vitro-Skin (0.6 mg/cm2) and irradiated. The irradiation dose was 5 MEDs repeated 4 times (=20 MEDs total). Retained Absorbance at 370 nm (UVA photostability, FIG. 1), 310 nm (UVB photostability, FIG. 2) and critical wavelength (Table 8, FIG. 3) were determined for each composition before and after each irradiation dose in order to determine their photostability.
The resulting sunscreen oil phases were tested for photostability by measuring absorbance on a Labsphere UV-1000S Ultraviolet Transmittance Analyzer before and after irradiation with a Solar Light Company model 16S solar simulator (equipped with a WG 320 filter to transmit radiation greater than 290 nm) in 5 MED (105 mJ/cm^2) increments up to 20 MED cumulative dose. Output was monitored by a PMA 2105 UV-B DCS Detector (biologically weighted) and controlled by a PMA 2100 Automatic Dose Controller (Solar Light Co.).
A synthetic skin substrate was used for testing the sunscreen compositions (VITRO-SKIN substrate by IMS, Inc. of Milford, Conn.). To prepare the substrate, a 300 g solution of 44 g of glycerin and 256 g of deionized water was added to an IMS hydrating chamber, and a sheet of VITRO-SKIN was placed in the hydrating chamber for approx. 16 hours. Several 6.5 cm squares were cut from the hydrated VITRO-SKIN and used for absorbance measurements.
To prepare slides for testing, sunscreen composition is drawn or placed into a pipette. The test composition is uniformly applied to VITRO-SKIN square (0.6 mg/cm^2). This application dose of the oil phase, 0.6 mg/cm^2, corresponds to the application dose of 2 mg/cm^2 of sunscreen formulation (typically the concentration of the oil phase in the sunscreen formulation is about 30%). The VITRO-SKIN square was then placed on a foam block, and the test material was spread by finger (covered with a latex glove or finger cot), first in a circular motion, then by a side-to-side motion during which the VITRO-SKIN is deformed by the pressure. The square was then mounted in a slide holder and allowed to dry for about 15 to 20 minutes.
To test photostability, a slide was positioned on the UV transmittance analyzer using registration marks, and a scan of 1 sq. cm spot on the slide was performed. The slide was then transferred to a holder placed adjacent to the solar simulator and, using a calipers, was positioned such that the beam of UV radiation exiting the solar simulator illuminated the same 1 cm spot on the slide. The following software settings were used: UV-B—290-320 nm; UV-A—320-400 nm; SPF—290-400 nm; Spectral Irradiance; Noon, July 3, Albuquerque, N.Mex.; SPF Spectral Irradiance and Erythermal Effectiveness settings as set by manufacturer. Following an exposure of 5 MED, the slide was again placed in position on the UV transmittance analyzer, and a scan of the exposed spot was performed. The procedure was repeated on the same 1 cm spot on the slide until the desired total radiation dosage was achieved.
The above compositions were applied on Vitro-Skin (0.6 mg/cm2) and irradiated. The irradiation dose was 5 MEDs repeated 4 times (=20 MEDs total). Retained Absorbance at 370 nm (Table 11 and FIG. 4), 310 nm (Table 12) and critical wavelength (Table 13 and FIG. 5) were determined for each composition before and after each irradiation dose in order to determine their photostability. The methodology is described above in more detail in Example 3.

As to `CCCCOCCOCCO` [Diethylene Glycol Monobutyl Ether], the “Dielectric Constant, 23° C.” value in data set [1] was 10.59.

Consider Polyethylene Glycol-7 Methyl Ether, for which, in data set [1], the “Dielectric Constant, 23° C.” value amounted to 13.1.

Turning to `COc1ccc(C(=O)c2ccccc2)c(O)c1` [Oxybenzone, oxybenzone], in data set [2], the “effect on retained absorbance at 310 nm after 15 MED (in words)” value (from here on “effect on retained absorbance at 310 nm”) was “helps retention at 310 nm”; the “effect on retained absorbance at 370 nm after 15 MED (in words)” value (“effect on retained absorbance at 370 nm” below) was “gives the highest boost in retain absorbance at 370 nm and 15 MED exposure”.

Consider `CCCCCCC(O)CO` (centres unmarked) [1,2-Octanediol], for which the “Dielectric Constant” value in data set [1] (measured at 30° C., solid at room temperature (23 C.)) amounted to 10.61. The “photostabilization of avobenzone (in words)” value in data set [3] is on record as “most effectively stabilizes avobenzone”. Further, in data set [2], the “effect on retained absorbance at 310 nm” value is listed as “significantly improves the photostability of sunscreens at 310 nm” and the “effect on retained absorbance at 370 nm” value is recorded as “significantly improves the photostability”.

Consider `CCCCC(CC)COC(=O)C(C#N)=C(c1ccccc1)c1ccccc1` (centres unmarked) [Octocrylene, 2-ethylhexyl-2-cyano-3,3 diphenylacrylate], for which, in data set [2], the “effect on retained absorbance at 310 nm” value is recorded as “gives mild a gain in absorbency” and the “effect on retained absorbance at 370 nm” value is listed as “helps the absorbance retention 370 nm, but not as significant as in the case of oxybenzone”.

For the compound `CCC(=O)OCCCCO` [Butylene Glycol Monopropionate], the “Dielectric Constant, 23° C.” value in data set [1] came out at 11.72.

For the compound `CCOCCOCCO` [Ethoxydiglycol, Diethylene glycol monoethyl ether], the “Dielectric Constant, 23° C.” value in data set [1] is given as 13.69. Moreover, in data set [3], the “photostability of UVB sunscreens at 310 nm (in words)” value (shortened to “photostability of UVB sunscreens”) is given as “can improve the photostability of UVB sunscreens at 310 nm” and the “photostability of avobenzone at 370 nm (in words)” value (“photostability of avobenzone” below) is on record as “without the significant improvement of the photostability of avobenzone at 370 nm”.

For the compound `CCCC(O)CO` (centres unmarked) [Pentylene Glycol, 1,2-pentanediol], the “Dielectric Constant, 23° C.” value in data set [1] is listed as 18.2. In data set [3], the “photostability of UVB sunscreens” value was “can improve the photostability of UVB sunscreens at 310 nm” and the “photostability of avobenzone” value is “without the significant improvement of the photostability of avobenzone at 370 nm”.

For the compound `CCCCC(O)CO` (centres unmarked) [1,2-Hexanediol], in data set [1], the “Dielectric Constant, 23° C.” value is listed as 15.1. Further, in data set [3], the “photostability of UVB sunscreens” value is “can improve the photostability of UVB sunscreens at 310 nm” and the “photostability of avobenzone” value is “without the significant improvement of the photostability of avobenzone at 370 nm”.
